Measured values: publication PMC7902330, “Pharmacokinetic study of traditional Japanese Kampo medicine shimotsuto used to treat gynecological diseases in rats” (Journal of Natural Medicines, 2021)
Where two headings read alike, the source gives them in different places.

Experiments:
[1] = Pharmacokinetics of ingredients in rat plasma after oral administration of shimotsuto (targeted LC–MS/MS); type: in vivo
Text: The plasma levels of nine ingredients were quantified using quantitative (targeted) analysis. Among them, seven ingredients (catalpol, paeoniflorin, albiflorin, senkyunolide A, butylphthalide, ferulic acid, and ligustilide) are candidate active ingredients in shimotsuto (Table 1). Two ingredients (bergapten and 8-debenzoylpaeoniflorin) are shimotsuto ingredients which were detected and identified in shimotsuto-treated rat plasma using nontargeted LC–HRMS analysis. The nine ingredients were quantified by collecting plasma samples at 0–24 h after shimotsuto administration, pretreating with the following procedures, and then analyzing by targeted LC–MS/MS using selected reaction-monitoring mode. The LC–MS/MS system was composed of a triple quadruple MS (TripleQuad6500; SCIEX, Framingham, MA, USA) and an Agilent 1290 Infinity LC system (Agilent Technologies, Santa Clara, CA, USA). For highly sensitive and selective quantitative (targeted) analysis of each compound, we preliminarily examined optimal pretreatment and analytical LC–MS/MS methods (e.g., MS parameters and LC conditions).
For quantification of catalpol, paeoniflorin, albiflorin, ferulic acid, and senkyunolide A in plasma, 100 µL of plasma sample was mixed with 20 µL of methanol (or working solution) and 20 µL of internal standard (niflumic acid or swertiamarin) and pretreated by deproteinization using 500 µL of acetonitrile. […] Finally, the dried residue was dissolved in 60 µL of the specific HPLC mobile phase used for analysis and then a 10 μL aliquot was injected into the LC–MS/MS system.
For quantification of ligustilide and butylphthalide in plasma, 200 µL of plasma sample was mixed with 40 µL of methanol (or working solution) and 40 µL of internal standard (imperatorin) and centrifuged at 15000×g for 10 min at 4 °C, the whole volume of supernatant was collected and subsequently pretreated by solid-phase extraction using Oasis HLB Extraction Cartridge (Waters, Milford, MA, USA). The acetonitrile elutes were collected and then dried under a steam of nitrogen gas. Finally, the dried residue was dissolved in 70 µL of the specific HPLC mobile phase and injected 20 µL into the LC–MS/MS system.
For quantification of bergapten in plasma, 100 µL of plasma sample was mixed with 20 µL of methanol (or working solution) and 20 µL of internal standard (niflumic acid) and pretreated by solid-phase extraction using an Oasis HLB 96-well µElution plate. Next, the mixied elutes of acetonitrile and isopropyl alcohol (1:1, v/v) were collected and then dried under a steam of nitrogen gas. Finally, the dried residue was dissolved in 60 µL of the specific HPLC mobile phase and injected 10 µL into the LC–MS/MS system.
For quantification of 8-debenzoylpaeoniflorin in plasma, 100 µL of plasma sample was mixed with 20 µL of methanol (or working solution) and 20 µL of internal standard (niflumic acid) and pretreated by liquid–liquid extraction using 500 µL of ethyl acetate. […] The dried residue was dissolved in 60 µL of the specific HPLC mobile phase and injected 10 µL into the LC–MS/MS system.
In addition, pharmacokinetic parameters of the shimotsuto ingredients detected in the plasma, such as the maximum concentration (Cmax) and area under the plasma level–time curve (AUC0−last), were calculated by noncompartmental moment analysis using Phoenix WinNonlin software (Certara L.P., St. Louis, MO, USA).

human TRPA1 = target: T1, human TRPA1 (Homo sapiens, UniProt O75762); assay: Ca2+ influx assay for TRP channel agonistic activity in T-REx-293 cells; type: cell-based; details: for activation at 10 µM: T-REx-293, 10 µmol/L test ingredient, positive control 20 µmol/L allyl isothiocyanate, read-out: % Activation compared to positive control, TRPA1
T1 construct: The full length of each of human transient receptor potential ankyrin 1 (TRPA1); expressed in transfected cells
T1 sequence (O75762 whole entry): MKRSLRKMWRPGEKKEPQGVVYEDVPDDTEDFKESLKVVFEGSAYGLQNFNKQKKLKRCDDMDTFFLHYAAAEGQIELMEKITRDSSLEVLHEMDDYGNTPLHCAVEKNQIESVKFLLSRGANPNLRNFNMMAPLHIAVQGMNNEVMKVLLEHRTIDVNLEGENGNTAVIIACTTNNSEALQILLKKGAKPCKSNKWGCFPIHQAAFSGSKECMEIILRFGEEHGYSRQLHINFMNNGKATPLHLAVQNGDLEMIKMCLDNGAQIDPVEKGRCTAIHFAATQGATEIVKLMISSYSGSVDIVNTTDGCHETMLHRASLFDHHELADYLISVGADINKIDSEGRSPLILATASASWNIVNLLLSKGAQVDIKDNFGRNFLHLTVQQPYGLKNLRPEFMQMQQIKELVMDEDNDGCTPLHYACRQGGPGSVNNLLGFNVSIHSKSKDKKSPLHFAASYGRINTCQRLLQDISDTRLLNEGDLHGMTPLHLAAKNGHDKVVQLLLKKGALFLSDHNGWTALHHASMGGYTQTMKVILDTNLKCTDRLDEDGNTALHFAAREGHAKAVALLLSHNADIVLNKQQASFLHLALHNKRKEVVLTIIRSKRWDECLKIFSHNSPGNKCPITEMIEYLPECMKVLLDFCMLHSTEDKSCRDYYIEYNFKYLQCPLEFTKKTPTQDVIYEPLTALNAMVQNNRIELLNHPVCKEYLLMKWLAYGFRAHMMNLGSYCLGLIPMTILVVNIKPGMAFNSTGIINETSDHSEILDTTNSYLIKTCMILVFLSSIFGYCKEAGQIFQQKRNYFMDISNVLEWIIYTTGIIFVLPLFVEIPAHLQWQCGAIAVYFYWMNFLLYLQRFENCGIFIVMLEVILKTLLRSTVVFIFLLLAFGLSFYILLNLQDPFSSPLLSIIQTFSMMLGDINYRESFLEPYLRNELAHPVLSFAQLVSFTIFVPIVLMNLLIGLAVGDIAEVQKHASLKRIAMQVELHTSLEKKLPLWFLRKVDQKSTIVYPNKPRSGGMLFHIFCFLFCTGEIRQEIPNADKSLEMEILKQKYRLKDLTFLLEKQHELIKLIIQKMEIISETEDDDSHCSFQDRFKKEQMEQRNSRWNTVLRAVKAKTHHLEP
Text: (§1) The full length of each of human transient receptor potential ankyrin 1 (TRPA1), transient receptor potential cation channel subfamily V member 1 (TRPV1), transient receptor potential cation channel subfamily V member 4 (TRPV4), and transient receptor potential cation channel subfamily M member 8 (TRPM8) coding region was introduced into a pcDNA4/TO vector (Thermo Fisher Scientific, Waltham, MA, USA) and transfected into T-REx-293 cells (Thermo Fisher Scientific) to obtain stable cell lines expressing human TRPA1, TRPV1, TRPV4, and TRPM8. Next, the cells were cultured in Dulbecco’s Modified Eagle Medium containing 10% fetal bovine serum (FBS), 4 mM L-glutamine, and penicillin/streptomycin.
(§2) First, cells were suspended in culture medium with 1 µg/mL of tetracycline and seeded on a poly-D-lysine-coated 96-well plate at a density of 2.5 × 10^4 cells/well overnight. Next, the cells were used for Ca^2+ influx assay, as described previously with minor modifications, using a FLIPR Calcium 5 Assay Kit (Molecular Devices, San Jose, CA, USA). Briefly, cells were incubated in 80 µL of a Ca^2+-chelating dye dissolved in assay buffer at pH 7.4 (Hanks’ Balanced Salt Solution containing 20 mmol/L of 4-(2-hydroxyethyl)-1-piperazineethanesulfonic acid [HEPES]) for 30 min at room temperature. Next, the plates were assayed in a FlexStation 3 microplate reader (Molecular Devices). The fluorescence intensity was traced entirely for 80 s, and the fluorescence baseline was measured 20 s before application of 20 µL of the test compound (final concentration = 10 µmol/L). The response was expressed as percentage activation as follows:
(§3) Relative fluorescence units (RFU) (% activation) = ([RFUmax − RFUbaseline]/RFUbaseline) × 100
(§4) The activity of each test compound against TRPA1, TRPV1, TRPV4, and TRPM8 was represented as the relative enhancement of the Ca^2+ influx of each positive control as follows: 20 µmol/L of allyl isothiocyanate (TRPA1 agonist), 2 µmol/L of capsaicin (TRPV1 agonist), 4 µmol/L of GSK1016790A (TRPV4 agonist), and 20 µmol/L of icilin (TRPM8 agonist). The dose–response curve was fitted to the sigmoidal dose–response equation (Top: maximum response of each compound), and EC50 was calculated using GraphPad prism 7 software (GraphPad, San Diego, CA, USA).
(§5) Calcium ion influx into TRPA1-, TRPV1-, TRPV4-, or TRPM8-expressing T-REx-293 cells was measured to evaluate the agonistic effect of shimotsuto ingredients on TRP channels. The action of 10 µmol/L of each test ingredient was represented as the relative enhancement of the Ca^2+ influx of each positive control, indicated as follows: 20 µmol/L each of allyl isothiocyanate (TRPA1 agonist), 2 µmol/L capsaicin (TRPV1 agonist), 4 µmol/L GSK1016790A (TRPV4 agonist), and 20 µmol/L icilin (TRPM8 agonist). Dose–response tests of shimotsuto ingredients against TRPA1 were performed to calculate EC50.

human TRPM8 = target: T2, human TRPM8 (Homo sapiens, UniProt Q7Z2W7); assay: as above; type: cell-based; details: 10 µmol/L test ingredient, positive control 20 µmol/L icilin, read-out: % Activation compared to positive control, TRPM8
T2 construct: The full length of each of human transient receptor potential ankyrin 1 (TRPA1); expressed in transfected cells
T2 sequence (Q7Z2W7 whole entry): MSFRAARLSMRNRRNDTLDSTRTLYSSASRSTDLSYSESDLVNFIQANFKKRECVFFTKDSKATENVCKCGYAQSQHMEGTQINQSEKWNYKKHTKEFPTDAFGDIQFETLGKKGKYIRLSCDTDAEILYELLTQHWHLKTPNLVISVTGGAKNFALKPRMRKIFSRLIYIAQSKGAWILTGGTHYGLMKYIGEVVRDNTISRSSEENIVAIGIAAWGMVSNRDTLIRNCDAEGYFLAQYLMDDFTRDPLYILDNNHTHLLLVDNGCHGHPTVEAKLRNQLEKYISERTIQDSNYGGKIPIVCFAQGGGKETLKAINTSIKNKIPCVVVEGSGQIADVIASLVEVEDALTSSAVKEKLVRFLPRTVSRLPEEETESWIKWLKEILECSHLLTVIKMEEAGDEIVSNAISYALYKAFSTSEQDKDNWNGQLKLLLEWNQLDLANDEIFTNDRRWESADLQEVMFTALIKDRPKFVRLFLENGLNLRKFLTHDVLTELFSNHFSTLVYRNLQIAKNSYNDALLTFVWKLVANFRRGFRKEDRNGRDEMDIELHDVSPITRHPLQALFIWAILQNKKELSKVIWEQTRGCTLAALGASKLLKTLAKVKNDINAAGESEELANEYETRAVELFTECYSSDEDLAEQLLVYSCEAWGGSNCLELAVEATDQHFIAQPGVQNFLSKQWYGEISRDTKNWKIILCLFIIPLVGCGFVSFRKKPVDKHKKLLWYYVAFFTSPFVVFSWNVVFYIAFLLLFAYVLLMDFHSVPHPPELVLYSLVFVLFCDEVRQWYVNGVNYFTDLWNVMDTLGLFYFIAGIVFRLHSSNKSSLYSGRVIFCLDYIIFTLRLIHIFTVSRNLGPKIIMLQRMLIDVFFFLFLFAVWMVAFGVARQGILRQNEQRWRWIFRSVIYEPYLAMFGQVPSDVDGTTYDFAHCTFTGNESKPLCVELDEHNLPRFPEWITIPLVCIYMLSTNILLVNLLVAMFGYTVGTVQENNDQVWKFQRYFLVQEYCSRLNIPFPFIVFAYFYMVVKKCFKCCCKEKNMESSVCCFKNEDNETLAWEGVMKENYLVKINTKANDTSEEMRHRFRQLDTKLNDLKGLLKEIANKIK
Text: as §1, §2, §3, §4, §5

human TRPV1 = target: T3, human TRPV1 (Homo sapiens, UniProt Q8NER1); assay: as above; type: cell-based; details: 10 µmol/L test ingredient, positive control 2 µmol/L capsaicin, read-out: % Activation compared to positive control, TRPV1
T3 construct: The full length of each of human transient receptor potential ankyrin 1 (TRPA1), transient receptor potential cation channel subfamily V member 1 (TRPV1); expressed in transfected cells
T3 sequence (Q8NER1 whole entry): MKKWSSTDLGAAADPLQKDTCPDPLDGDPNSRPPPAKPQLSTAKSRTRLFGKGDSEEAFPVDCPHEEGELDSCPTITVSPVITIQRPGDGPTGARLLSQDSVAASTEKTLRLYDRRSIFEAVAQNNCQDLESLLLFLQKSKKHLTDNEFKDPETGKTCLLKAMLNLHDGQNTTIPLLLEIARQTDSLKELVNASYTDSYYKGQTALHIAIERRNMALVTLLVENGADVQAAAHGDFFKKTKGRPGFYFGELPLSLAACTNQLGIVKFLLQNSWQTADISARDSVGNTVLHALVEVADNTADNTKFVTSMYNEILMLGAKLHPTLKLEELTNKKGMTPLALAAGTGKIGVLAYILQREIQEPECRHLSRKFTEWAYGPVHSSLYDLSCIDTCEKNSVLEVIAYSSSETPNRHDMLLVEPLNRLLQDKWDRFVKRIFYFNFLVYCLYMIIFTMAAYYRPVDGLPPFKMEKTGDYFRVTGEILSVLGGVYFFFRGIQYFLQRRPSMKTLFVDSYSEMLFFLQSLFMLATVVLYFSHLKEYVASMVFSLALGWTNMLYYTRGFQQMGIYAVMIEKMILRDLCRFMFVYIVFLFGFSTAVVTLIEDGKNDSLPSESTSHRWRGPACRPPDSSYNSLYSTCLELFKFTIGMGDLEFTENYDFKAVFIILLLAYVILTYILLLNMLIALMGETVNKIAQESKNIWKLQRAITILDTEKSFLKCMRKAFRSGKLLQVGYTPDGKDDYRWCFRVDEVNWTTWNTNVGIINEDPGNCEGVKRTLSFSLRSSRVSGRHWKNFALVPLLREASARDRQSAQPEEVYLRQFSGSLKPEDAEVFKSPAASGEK
Text: as §1, §2, §3, §4, §5

human TRPV4 = target: T4, human TRPV4 (Homo sapiens, UniProt Q9HBA0); assay: as above; type: cell-based; details: 10 µmol/L test ingredient, positive control 4 µmol/L GSK1016790A, read-out: % Activation compared to positive control, TRPV4
T4 construct: The full length of each of human transient receptor potential ankyrin 1 (TRPA1); expressed in transfected cells
T4 sequence (Q9HBA0 whole entry): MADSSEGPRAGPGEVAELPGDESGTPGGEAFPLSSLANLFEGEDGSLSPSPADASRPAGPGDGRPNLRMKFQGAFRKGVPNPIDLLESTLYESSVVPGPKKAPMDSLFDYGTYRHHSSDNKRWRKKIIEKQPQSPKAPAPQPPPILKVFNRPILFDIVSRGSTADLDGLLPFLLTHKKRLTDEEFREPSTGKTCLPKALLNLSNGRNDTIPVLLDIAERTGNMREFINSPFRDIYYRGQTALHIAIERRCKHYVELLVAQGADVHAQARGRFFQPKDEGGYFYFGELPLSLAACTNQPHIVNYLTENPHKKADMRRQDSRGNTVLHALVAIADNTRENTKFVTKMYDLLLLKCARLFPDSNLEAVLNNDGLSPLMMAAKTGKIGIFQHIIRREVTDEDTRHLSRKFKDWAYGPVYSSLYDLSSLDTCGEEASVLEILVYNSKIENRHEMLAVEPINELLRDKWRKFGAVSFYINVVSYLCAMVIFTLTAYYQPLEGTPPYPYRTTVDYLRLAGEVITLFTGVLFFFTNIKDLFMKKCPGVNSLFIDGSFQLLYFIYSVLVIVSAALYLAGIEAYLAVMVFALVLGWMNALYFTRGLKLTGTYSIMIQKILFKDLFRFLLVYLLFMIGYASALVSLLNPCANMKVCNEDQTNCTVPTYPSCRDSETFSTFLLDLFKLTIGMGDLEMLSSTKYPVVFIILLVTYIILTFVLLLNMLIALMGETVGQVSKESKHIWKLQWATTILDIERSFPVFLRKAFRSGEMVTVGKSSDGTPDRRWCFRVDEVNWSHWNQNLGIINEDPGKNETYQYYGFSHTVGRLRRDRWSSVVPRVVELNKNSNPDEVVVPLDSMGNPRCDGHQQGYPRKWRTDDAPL
Text: as §1, §2, §3, §4, §5

blood viscosity = system: blood viscosity; set-up: method as in PMID 28299338; details: rat model; cited from earlier work
[2] = Plasma levels of catalpol in humans after goshajinkigan administration (unpublished data); type: in vivo, human; details: after goshajinkigan (including Rehmanniae Radix) administration
[3] = set-up: method as in PMID 31514313; details: ref 18; cited from earlier work
[4] = cited from earlier work
[5] = system: transient receptor potential ankyrin 1 (TRPA1); set-up: method as in PMID 21894528; details: ref 15; cited from earlier work
[6] = set-up: method as in PMID 8932691; details: cited from earlier work

SMILES | AUC(0-t) ([1]; rat, in vivo, po, 1 g/kg) | Cmax ([1]; rat, in vivo, po, 1 g/kg) | Tmax ([1]; rat, in vivo, po, 1 g/kg) | half-life ([1]; rat, in vivo, po, 1 g/kg) | activation at 10 µM (human TRPA1) | activation at 10 µM (human TRPM8) | activation at 10 µM (human TRPV1) | activation at 10 µM (human TRPV4) | Pharmacological action related to improvement of blood and the circulatory system (blood viscosity) | Plasma levels in humans [2] | Absolute bioavailability [3] | Pharmacological action related to improvement of blood and the circulatory system ([4]; ref 11) | Activation of TRPA1 (in words) (human TRPA1; TRP stable expression cell lines) | EC50 (human TRPA1; dose–response test, Ca2+ influx, read-out: EC50 against TRPA1) | Pharmacological action related to improvement of blood and the circulatory system ([4]; ref 8) | Pharmacological action related to improvement of blood and the circulatory system ([4]; ref 13) | Pharmacological action related to improvement of blood and the circulatory system [5] | Tmax ([1]; rat plasma, oral shimotsuto 1 g/kg, from mean concentration (n = 3) per time point) | Cumulative biliary excretion ([6]; after oral administration of paeoniflorin, within 24 h) | Bioavailability ([6]; in rats)
CC12CC(O)C3CC1(OC1OC(CO)C(O)C(O)C1O)C3(COC(=O)c1ccccc1)C(=O)O2 (stereo not shown) [Albiflorin] | 24.2 ng·h/mL | 6.34 ng/mL | 30 min | 163 min | 1% | 1% | 0% | -1% | Reduction of blood viscosity via antithrombotic effect in rat model [12] | – | – | – | – | – | – | – | – | – | – | –
OC[C@H]1O[C@@H](O[C@@H]2OC=C[C@H]3[C@H](O)[C@@H]4O[C@]4(CO)[C@@H]23)[C@H](O)[C@@H](O)[C@@H]1O [Catalpol] | 2030 ng·h/mL | 1360 ng/mL | 60 min | 38.6 min | 2% | 3% | 0% | 0% | – | quite low | 66.7% | Protective effect on vascular endothelial function via multiple actions such as induction of serum nitric oxide [11] | – | – | – | – | – | – | – | –
CCC/C=C1\OC(=O)C2=C1CCC=C2 [Ligustilide] | 0.916 ng·h/mL | 2.83 ng/mL | 30 min | – | 87% | 18% | 0% | -1% | – | – | – | – | potently activated | 1300 nM | vasorelaxation | vasorelaxation and increased blood flow effects | Activation of transient receptor potential ankyrin 1 (TRPA1; which plays a role in vasodilation) | – | – | –
C[C@@]12C[C@@]3(O)O[C@@H](O1)[C@]1(COC(=O)c4ccccc4)[C@H]3C[C@@]12O[C@@H]1O[C@H](CO)[C@@H](O)[C@H](O)[C@H]1O [Paeoniflorin] | 83.6 ng·h/mL | 36.3 ng/mL | – | 88.8 min | 1% | 0% | -1% | 0% | Reduction of blood viscosity via antithrombotic effect in rat model [12] | – | – | – | – | – | – | – | – | 30 min | 1.3 % of the dose | low
